Several values for one entry are separate records, joined by “and”; a condition that tells them apart may be missing. Equal values may be shown once. Records with an inconclusive call do not appear.
System: Nude mice, LX-1 lung xenograft intrarenal, tumor weight T/C
Assay: NCI In Vivo Anticancer Drug Screen. Data for tumor model Human Lung LX-1 Xenograft (intrarenal inoculation) in NU/NU BALB/C (nude) mice
Conditions: endpoint: mean tumor weight change, higher = larger tumour
Description: The antitumor activity of compounds was measured in mice bearing transplantable tumors. Survival or tumor size were measured and the results are expressed as the measurement made in the treated group (T) divided by the measurement made in the vehicle treated control group (C). The tumor model used in this assay is Human Lung LX-1 Xenograft (intrarenal inoculation) in NU/NU BALB/C (nude) mice

[1] = dose: 100.0 mg/kg/injection, schedule: Q04DX003 (sc), vehicle: Klucel (hydroxypropylcellulose) (HPC)
[2] = dose: 200.0 mg/kg/injection, schedule: Q04DX003 (sc), vehicle: Klucel (hydroxypropylcellulose) (HPC)
[3] = dose: 50.0 mg/kg/injection, schedule: Q01DX010 (sc), vehicle: Klucel (hydroxypropylcellulose) (HPC)

Nc1nc(Br)nc2c1ncn2C1CC(O)C(CO)O1 (centres undefined)
T/C (dose: 7.5 mg/kg/injection, schedule: Q03DX003 (ip), vehicle: saline): 66 % of control
T/C (dose: 15.0 mg/kg/injection, schedule: Q03DX003 (ip), vehicle: saline): 77 % of control
T/C (dose: 30.0 mg/kg/injection, schedule: Q03DX003 (ip), vehicle: saline): 72 % of control
T/C (dose: 60.0 mg/kg/injection, schedule: Q03DX003 (ip), vehicle: saline): 59 % of control
T/C (dose: 120.0 mg/kg/injection, schedule: Q03DX003 (ip), vehicle: saline): 74 % of control

C1CC[N-]CC1.[Cl][Pt+2][Cl].[NH-]C1CC1
T/C (dose: 25.0 mg/kg/injection, schedule: Q04DX003 (sc), vehicle: water): 106 % of control
T/C (dose: 50.0 mg/kg/injection, schedule: Q04DX003 (sc), vehicle: water): 71 % of control
T/C (dose: 100.0 mg/kg/injection, schedule: Q04DX003 (sc), vehicle: water): 51 % of control

N#CN=[N+]([O-])c1ccc(C(=O)O)cc1
T/C (dose: 11.25 mg/kg/injection, schedule: Q04DX003 (sc), vehicle: Klucel (hydroxypropylcellulose) (HPC)): 66 % of control
T/C (dose: 22.5 mg/kg/injection, schedule: Q04DX003 (sc), vehicle: Klucel (hydroxypropylcellulose) (HPC)): 65 % of control
T/C (dose: 45.0 mg/kg/injection, schedule: Q04DX003 (sc), vehicle: Klucel (hydroxypropylcellulose) (HPC)): 47 % of control

Cc1ccc(S(=O)(=O)NC(=O)OC23COCN2COC3)cc1
T/C (dose: 200.0 mg/kg/injection, schedule: Q04DX003 (sc), vehicle: saline with Tween-80): 118 % of control
T/C (dose: 400.0 mg/kg/injection, schedule: Q04DX003 (sc), vehicle: saline with Tween-80): 121 % of control
T/C (dose: 800.0 mg/kg/injection, schedule: Q04DX003 (sc), vehicle: saline with Tween-80): 153 % of control
T/C (dose: 1600.0 mg/kg/injection, schedule: Q04DX003 (sc), vehicle: saline with Tween-80): 112 % of control

CN(C)N=Nc1ccc(S(N)(=O)=O)cc1
T/C (dose: 100.0 mg/kg/injection, schedule: Q01DX010 (sc), vehicle: Klucel (hydroxypropylcellulose) (HPC)): -13 % of control
T/C [1]: 38 % of control and 61 % of control
T/C (dose: 200.0 mg/kg/injection, schedule: Q01DX010 (sc), vehicle: Klucel (hydroxypropylcellulose) (HPC)): -72 % of control
T/C [2]: 3 % of control and 11 % of control
T/C (dose: 400.0 mg/kg/injection, schedule: Q01DX010 (sc), vehicle: Klucel (hydroxypropylcellulose) (HPC)): -100 % of control

O=C1NC(=O)NC(C(=O)O)N1
T/C [1]: 87 % of control
T/C [2]: 98 % of control
T/C (dose: 400.0 mg/kg/injection, schedule: Q04DX003 (sc), vehicle: Klucel (hydroxypropylcellulose) (HPC)): 106 % of control

CN=NN(C)C(=O)NC
T/C (dose: 6.25 mg/kg/injection, schedule: Q04DX003 (ip), vehicle: saline): 71 % of control and 82 % of control
T/C (dose: 12.5 mg/kg/injection, schedule: Q04DX003 (ip), vehicle: saline): 28 % of control and 45 % of control
T/C (dose: 25.0 mg/kg/injection, schedule: Q04DX003 (ip), vehicle: saline): 6 % of control
T/C (dose: 50.0 mg/kg/injection, schedule: Q04DX003 (ip), vehicle: saline): -34 % of control and -18 % of control
T/C (dose: 108.0 mg/kg/injection, schedule: Q04DX003 (ip), vehicle: saline): 5 % of control
T/C (dose: 180.0 mg/kg/injection, schedule: Q04DX003 (ip), vehicle: saline): 4 % of control

CC1=C2CC(C)(C)/C=C\C(=O)/C(C)=C\C3=C[C@H](C)C[C@]3(O2)C1=O
T/C (dose: 6.0 mg/kg/injection, schedule: Q01DX010 (sc), vehicle: Klucel (hydroxypropylcellulose) (HPC)): 81 % of control
T/C (dose: 12.0 mg/kg/injection, schedule: Q01DX010 (sc), vehicle: Klucel (hydroxypropylcellulose) (HPC)): 168 % of control
T/C (dose: 24.0 mg/kg/injection, schedule: Q01DX010 (sc), vehicle: Klucel (hydroxypropylcellulose) (HPC)): 236 % of control
T/C [3]: 33 % of control

C=CC(C)NC(=S)NNC(=S)NC (centres undefined)
T/C (dose: 300.0 mg/kg/injection, schedule: Q04DX003 (sc), vehicle: saline + alcohol): 115 % of control
T/C (dose: 600.0 mg/kg/injection, schedule: Q04DX003 (sc), vehicle: saline + alcohol): 87 % of control
T/C (dose: 1200.0 mg/kg/injection, schedule: Q04DX003 (sc), vehicle: saline + alcohol): 87 % of control
T/C (dose: 2400.0 mg/kg/injection, schedule: Q04DX003 (sc), vehicle: saline + alcohol): 78 % of control

CC(=O)C(=O)O.CC(=O)C(=O)O.[NH-]C1CCCCC1[NH-].[Pt+2] (centres undefined)
T/C (dose: 9.37 mg/kg/injection, schedule: Q04DX003 (sc), vehicle: other): 67 % of control
T/C (dose: 18.75 mg/kg/injection, schedule: Q04DX003 (sc), vehicle: other): 76 % of control
T/C (dose: 37.5 mg/kg/injection, schedule: Q04DX003 (sc), vehicle: other): 80 % of control

CC1CCC(NC(=O)N(CCCl)N=O)CC1 (centres undefined)
T/C (dose: 3.13 mg/kg/injection, schedule: Q01DX010 (sc), vehicle: Klucel (hydroxypropylcellulose) (HPC)): 67 % of control
T/C (dose: 6.25 mg/kg/injection, schedule: Q01DX010 (sc), vehicle: Klucel (hydroxypropylcellulose) (HPC)): 3 % of control

Cn1cnc([N+](=O)[O-])c1[Se]c1nc(N)nc2nc[nH]c12
T/C (dose: 50.0 mg/kg/injection, schedule: Q01DX010 (sc), vehicle: water): 64 % of control
T/C (dose: 100.0 mg/kg/injection, schedule: Q01DX010 (sc), vehicle: water): 69 % of control

C[C@]12CCC(=O)C(O)=C1CC[C@@H]1[C@@H]2CC[C@]2(C)C(=O)CC[C@@H]12
T/C (dose: 150.0 mg/kg/injection, schedule: Q04DX003 (ip), vehicle: Klucel (hydroxypropylcellulose) (HPC)): 61 % of control
T/C (dose: 300.0 mg/kg/injection, schedule: Q04DX003 (ip), vehicle: Klucel (hydroxypropylcellulose) (HPC)): 99 % of control
T/C (dose: 600.0 mg/kg/injection, schedule: Q04DX003 (ip), vehicle: Klucel (hydroxypropylcellulose) (HPC)): 89 % of control

C[C@]12C=CC(=O)C=C1CC[C@@H]1[C@@H]2[C@@H](O)C[C@@]2(C)[C@H]1CC[C@]2(O)C(=O)CO
T/C [3]: 63 % of control

CNc1nc(N(C)C)nc(N(C)C)n1
T/C (dose: 30.0 mg/kg/injection, schedule: Q01DX010 (sc), vehicle: other): 169 % of control
T/C (dose: 60.0 mg/kg/injection, schedule: Q01DX010 (sc), vehicle: other): 29 % of control

OCC(O)C(O)C(O)C(O)CO (centres undefined)
T/C (dose: 75.0 mg/kg/injection, schedule: Q04DX003 (ip), vehicle: saline): 108 % of control
T/C (dose: 600.0 mg/kg/injection, schedule: Q04DX003 (ip), vehicle: saline): 109 % of control
T/C (dose: 1200.0 mg/kg/injection, schedule: Q04DX003 (ip), vehicle: saline): 94 % of control

CCN(CC)CCOCCO
T/C (dose: 150.0 mg/kg/injection, schedule: Q04DX003 (sc), vehicle: saline): 109 % of control
T/C (dose: 300.0 mg/kg/injection, schedule: Q04DX003 (sc), vehicle: saline): 105 % of control
T/C (dose: 600.0 mg/kg/injection, schedule: Q04DX003 (sc), vehicle: saline): 86 % of control
T/C (dose: 1200.0 mg/kg/injection, schedule: Q04DX003 (sc), vehicle: saline): 77 % of control

CN(CO)c1nc(N(C)CO)nc(N(C)CO)n1
T/C (dose: 6.25 mg/kg/injection, schedule: Q01DX010 (sc), vehicle: saline): 71 % of control
T/C (dose: 25.0 mg/kg/injection, schedule: Q01DX010 (sc), vehicle: saline): 100 % of control
T/C (dose: 50.0 mg/kg/injection, schedule: Q01DX010 (sc), vehicle: saline): 122 % of control

[Cl][Hg][Cl]
T/C (dose: 2.5 mg/kg/injection, schedule: Q04DX003 (ip), vehicle: saline): 92 % of control
T/C (dose: 5.0 mg/kg/injection, schedule: Q04DX003 (ip), vehicle: saline): 82 % of control
T/C (dose: 10.0 mg/kg/injection, schedule: Q04DX003 (ip), vehicle: saline): 58 % of control

CC[C@H]1CN2CCc3cc(OC)c(OC)cc3[C@@H]2C[C@@H]1C[C@H]1NCCc2cc(OC)c(OC)cc21
T/C (dose: 4.0 mg/kg/injection, schedule: Q01DX010 (sc), vehicle: saline): 81 % of control

CC1=C/C(O)CC(=O)Cc2nc(co2)C(=O)N2CCC=C2C(=O)OC(C(C)C)C(C)/C=C\C(=O)NC/C=C\1 (centres undefined)
T/C (dose: 300.0 mg/kg/injection, schedule: Q04DX003 (sc), vehicle: Klucel (hydroxypropylcellulose) (HPC)): 102 % of control
T/C (dose: 600.0 mg/kg/injection, schedule: Q04DX003 (sc), vehicle: Klucel (hydroxypropylcellulose) (HPC)): 90 % of control
T/C (dose: 1200.0 mg/kg/injection, schedule: Q04DX003 (sc), vehicle: Klucel (hydroxypropylcellulose) (HPC)): 69 % of control
T/C (dose: 2400.0 mg/kg/injection, schedule: Q04DX003 (sc), vehicle: Klucel (hydroxypropylcellulose) (HPC)): 82 % of control

CCCCCCCCCCCCCCCCCCOCC(COP(=O)([O-])OCC[N+](C)(C)C)OC (centres undefined)
T/C (dose: 37.5 mg/kg/injection, schedule: Q04DX003 (sc), vehicle: saline): 68 % of control
